In patent US20220290106A1, “Method for Promoting Cell Proliferation, and Method for Preparing Cell Cluster” (Osaka University, priority 2019, published 2022):

Tests used:
MSC cell aggregates [1] = assay: Test Example 7: aggregate culture 4 of MSCs (3-DG or GO); format: cell-based; details: for cell proliferation rate of the MSC cell aggregate: cells counted Day 4 (before treatment) and Day 9, 24 hours treatment, then 10 μM ROCK inhibitor medium; for cell proliferation rate, dependence on concentration: cells counted Day 4 and Day 9, increasing 3-DG/GO concentration; for periphery of the cell aggregate (effect of promoting cell proliferation): treatment time 24 hours from Day 4, then 10 μM ROCK inhibitor medium, Day 9 vs Day 4
Procedure: Test Example 7 was performed in the same manner as Test Example 6 (aggregate culture 3 of MSCs) except that the culture conditions were changed as follows.
(§1) Medium on Day 0: the above medium containing no ROCK inhibitor
Added reagent: 3-Deoxyglucosone (3-DG) (manufactured by Sigma-Aldrich) • Glyoxal Solution (GO) (manufactured by Sigma-Aldrich) Addition of 3-DG or GO: 3-DG or GO was added after the medium was replaced on the 4th day of culture (Day 4). 3-DG or GO treatment time: 24 hours Medium for replacement:
(§2) Day 2, 4: the above medium containing no ROCK inhibitor
(§3) Day 5, 7, 9: the above medium containing 10 μM ROCK inhibitor
Similarly to Test Example 4, the number of cells was counted on Day 4 (before the treatment) and on Day 9, and the cell proliferation rate was confirmed. As a result, the cell proliferation rate of the MSC cell aggregate was increased by culturing the MSC cell aggregate that had been treated with 3-DG or GO, like the MG treatment.

[2] = tested on: iPS cell aggregates (iPSCs, D2 strain); assay: Test Example 1: aggregate culture 1 of iPS cells; format: cell-based
Procedure: iPSC aggregates were cultured under the following culture conditions. FIGS. 1A and 1B show the results. Cell: iPSCs (D2 strain, Np43) Medium: StemFit (registered trademark) A[…] (manufactured by Takara Bio Inc.) Culture vessel: 96 well V-bottom plate (MS-9096V manufactured by Sumitomo Bakelite Co., Ltd.) Cell density: 1316 cells/cm^2 (5×10^2 cells/wells) Culture condition: 37° C., 5% CO2 incubator Amount of medium: 150 μl/well Culture period: 7 clays (Methylglyoxal was added once after the medium was replaced on the 4th day of culture (Day 4).) Medium on Day 0: the above medium containing 10 μM ROCK inhibitor Replacement of medium: 150 μl/well Medium for replacement: the above medium containing no ROCK inhibitor Added reagent: Methylglyoxal Solution (product code: […], 1.17 g/mL, 16.25 M, manufactured by Sigma-Aldrich) Methylglyoxal (MG) concentration: 0, 0.1, 1, 10, 100 mM Imaging: photomicrography on the 4th day of culture (Day 4) (before addition of MG) and the 5th, 6th, and 7th day of culture (Day 5, 6, 7) (after addition of MG) FIGS. 1A and 1B show an example of photomicrographs of iPS cell aggregates before the addition of MG (Day 4) and after the addition of MG (Day 5, 6, 7). FIG. 1B is a partially enlarged view of FIG. 1A

[3] = tested on: iPS cell aggregates (iPSCs, D2 strain); assay: Test Example 2: aggregate culture 2 of iPSCs (MG 20 minutes, then ROCK inhibitor medium); format: cell-based; details: MG 1.25-20 mM, treatment time 20 minutes on Day 4, then medium with 10 μM ROCK inhibitor; Day 10 vs Day 4
Procedure: Cell: iPSCs (D2 strain, Np17, feeder less) Medium: StemFit (registered trademark) A[…] (manufactured by Takara Bio Inc.) Culture vessel: 96 well V-bottom plate (MS-9096V manufactured by Sumitomo Bakelite Co., Ltd.) Cell density: 200 cells/well Culture condition: 37° C., 5% CO2 Amount of medium: 150 μl/well Culture period: 10 days and (subculture) 5 days (15 days in total) Medium on Day 0: the above medium containing 10 μM ROCK inhibitor Replacement of medium: 75 μl/well (daily) Medium for replacement: Day 4 to 10: the above medium containing 10 μM ROCK inhibitor Day 1 to 3: the above medium containing no ROCK inhibitor Methylglyoxal concentration: 0, 1.25, 2.5, 5, 10, 15, 20 mM Added reagent: Methylglyoxal Solution (product code: […], 1.17 g/mL, 16.25 M, manufactured by Sigma-Aldrich) Addition of MG: MG was added 20 minutes before the medium was replaced on the 4th day of culture (Day 4). MG treatment time: 20 minutes Imaging: video observation with BicStudio (manufactured by NIKON ENGINEERING CO., LTD.) after addition of MG

[4] = tested on: iPS cell aggregates (iPSCs, D2 strain); assay: Test Example 3: aggregate culture 3 of iPSCs (MG 24 hours, then ROCK inhibitor medium); format: cell-based; details: MG 1.25-20 mM, treatment time 24 hours from Day 4, then medium with 10 μM ROCK inhibitor; Day 10 vs Day 4
Procedure: Test Example 3 was performed in the same manner as Test Example 2 (aggregate culture 2 of iPSCs) except that the culture conditions were changed as follows and the procedures shown in FIG. 3 were used. […] Addition of MG: MG was added after the medium was replaced on the 4th day of culture (Day 4). MG treatment time: 24 hours Medium for replacement: Day 4 to 10: the above medium containing 10 μM ROCK inhibitor Day 1 to 3: the above medium containing no ROCK inhibitor

MSC aggregates = assay: Test Example 4: aggregate culture 1 of mesenchymal stem cells, cell proliferation rate; format: cell-based
Procedure: MSC aggregates were cultured under the following culture conditions. The number of cells was counted on Day 4 (before the addition of MG) and on Day 9. Using the resulting number of cells, the cell proliferation rate was obtained from the following formula.
Medium: Mesenchymal Stem Cell Growth Medium 2 (manufactured by Takara Bio Inc.) Culture vessel: Micro-Space Cell Culture Plate (manufactured by Kuraray Co., Ltd), 24 well plate (manufactured by Corning) Culture condition: 37° C., 5% CO2 incubator Amount of medium: 3 mL/well Seeding density: 1.0×10^5 cell/well Culture period: 9 days
as §1
Replacement of medium: 1.5 mL/well×3, once every two days (Day 5, 7, 9) Medium for replacement:
as §2, §3
Added reagent: Methylglyoxal Solution (product code: M0252, 1.17 g/mL, 16.25 M, manufactured by Sigma-Aldrich) Methylglyoxal concentration: 0, 0.0075, 0.01, 0.0125, 0.015, 0.02 mM Addition of MG: MG was added after the medium was replaced on the 4th day of culture (Day 4). MG treatment time: 24 hours
Cell proliferation rate=(the number of cells on Day 9)/(the number of cells on […])

MSCs (monolayer culture) = assay: Monolayer culture of MSCs under the conditions of Test Example 4; format: cell-based; details: monolayer culture instead of aggregate culture; presence or absence of MG and ROCK inhibitor
Procedure: Next, MSCs were cultured under the culture conditions of Test Example 4 except that the MSCs were subjected to monolayer culture instead of aggregate culture.

MSC cell aggregates [5] = assay: Test Example 5: aggregate culture 2 of MSCs (MG 20 minutes); format: cell-based; details: MG 1.25-20 mM, treatment time 20 minutes on Day 4, then 10 μM ROCK inhibitor medium; Day 15 vs Day 4
Procedure: MSC aggregates were cultured under the following culture conditions. […] Medium: Mesenchymal Stem Cell Growth Medium 2 (manufactured by Takara Bio Inc.) Culture vessel: Micro-Space Cell Culture Plate (manufactured by Kuraray Co., Ltd), 24 well plate (manufactured by Corning) Culture condition: 37° C., 5% CO2 incubator Amount of medium: 3 mL/well Seeding density: 1.0×10^5 cell/well Culture period: 15 days Medium on Day 0: the above medium containing no ROCK inhibitor Replacement of medium: 1.5 mL/well×3, once every two days Medium for replacement: Day 2: the above medium containing no ROCK inhibitor Day 4, 6, 8, 10, 12, 14: the above medium containing 10 μM ROCK inhibitor Added reagent: Methylglyoxal Solution (product code: […], 1.17 g/mL, 16.25 M, manufactured by Sigma-Aldrich) Methylglyoxal concentration: 0, 1.25, 2.5, 5, 10, 15, 20 mM Addition of MG: MG was added 20 minutes before the medium was replaced on the 4th day of culture (Day 4). MG treatment time: 20 minutes Imaging: Day 4 (before addition of MG) and Day 15

MSC cell aggregates [6] = assay: Test Example 6: aggregate culture 3 of MSCs (MG 24 hours); format: cell-based; details: MG 1.25-20 mM, treatment time 24 hours from Day 4, then 10 μM ROCK inhibitor medium; Day 15 vs Day 4
Procedure: Test Example 6 was performed in the same manner as Test Example 5 (aggregate culture 2 of MSCs) except that the culture conditions were changed as follows. […] Addition of MG: MG was added after the medium was replaced on the 4th day of culture (Day 4). MG treatment time: 24 hours Medium for replacement: Day 2, 4: the above medium containing no ROCK inhibitor Day 5, 7, 9, 11, 13, 15: the above medium containing 10 μM ROCK inhibitor

HepG2 aggregates = assay: Test Example 8: aggregate culture of HepG2; format: cell-based, Human; details: MG 1-20 mM for 24 hours from Day 3, then 10 μM ROCK inhibitor medium
Procedure: HepG2 aggregates were cultured under the following culture conditions. The number of cells was counted on Day 3 (before the addition of MG) and on Day 4, and the cell proliferation rate was confirmed.
Medium: HepG2 Hepatocellular Carcinoma Expansion Media, Human (Cellular Engineering Technologies)
Culture vessel: 24 well plate (manufactured by Coming) Culture condition: 37° C., 5% CO2 incubator Amount of medium: 0.5 mL/well Culture period: 6 days
as §1
Day 2, 3: the above medium containing no ROCK inhibitor
Day 4, 6: the above medium containing 10 μM ROCK inhibitor
Seeding density: 1.0×10^4 cells/cm^2 Replacement of medium: 0.5 mL/well, once every two days Added reagent: Methylglyoxal Solution (manufactured by Sigma-Aldrich) Methylglyoxal concentration: 0, 1, 5, 10, 15, 20 mM Addition of MG: MG was added after the medium was replaced on the 3rd day of culture (Day 3). MG treatment time: 24 hours

| Compound | cell proliferation rate of the MSC cell aggregate (MSC cell aggregates [1]) | cell proliferation rate, dependence on concentration (MSC cell aggregates [1]) | periphery of the cell aggregate (effect of promoting cell proliferation) (MSC cell aggregates [1]) | cell binding properties in the periphery of the cell aggregate, dependence on MG concentration ([2]; MG 0.1, 1, 10, 100 mM) | cell binding properties in the periphery of the cell aggregate ([2]; MG 0.1-100 mM added once on Day 4, compared to control not treated with MG) | periphery (outer circumferential portion) of the cell aggregate, fibrillation state ([2]; MG 0.1-100 mM added once on Day 4, photomicrographs Day 5, 6, 7, compared to control not treated with MG) | periphery of the cell aggregate (effect of promoting cell proliferation) [3] | periphery of the cell aggregate (effect of promoting cell proliferation) [4] | cell proliferation rate (MSC aggregates; MG 0.0075-0.02 mM for 24 hours from Day 4, then 10 μM ROCK inhibitor medium, cell count Day 9, without MG (0 mM) 1.2 times) | cell proliferation rate, medium containing ROCK inhibitor versus medium containing no ROCK inhibitor (MSC aggregates; combination of MG and 10 μM ROCK inhibitor compared with MG without ROCK inhibitor) | cell proliferation rate (MSCs (monolayer culture)) | periphery of the cell aggregate (effect of promoting cell proliferation) (MSC cell aggregates [5]) | periphery of the cell aggregate (effect of promoting cell proliferation) (MSC cell aggregates [6]) | periphery of the cell aggregate (effect of promoting cell proliferation) (HepG2 aggregates) |
| --- | --- | --- | --- | --- | --- | --- | --- | --- | --- | --- | --- | --- | --- | --- |
| O=CC(=O)C[C@H](O)[C@H](O)CO [3-DG, 3-Deoxyglucosone] | increased | tended to be higher with an increase in the 3-DG/GO concentration | expand slightly |  |  |  |  |  |  |  |  |  |  |  |
| O=CC=O [GO, glyoxal] | increased | tended to be higher with an increase in the 3-DG/GO concentration | expand slightly |  |  |  |  |  |  |  |  |  |  |  |
| CC(=O)C=O [MG, methylglyoxal] |  |  |  | tended to be further reduced with an increase in the MG concentration | reduced | became non-fibrillated (unraveled) | expand slightly | expand slightly | nearly doubled | higher | did not change significantly | expand slightly | expand slightly | expand slightly |
